# Data taken from patent US11180474B2 (BRISTOL-MYERS SQUIBB COMPANY, priority 2016, dated 2021).
# Structures can show the parent of a compound that is named as a salt.
# Molecular target: T1, human TLR8 (Homo sapiens, UniProt Q9NR97)
# T1 construct: host or cells: HEK-Blue cells
# T1 sequence (Q9NR97 27-1041): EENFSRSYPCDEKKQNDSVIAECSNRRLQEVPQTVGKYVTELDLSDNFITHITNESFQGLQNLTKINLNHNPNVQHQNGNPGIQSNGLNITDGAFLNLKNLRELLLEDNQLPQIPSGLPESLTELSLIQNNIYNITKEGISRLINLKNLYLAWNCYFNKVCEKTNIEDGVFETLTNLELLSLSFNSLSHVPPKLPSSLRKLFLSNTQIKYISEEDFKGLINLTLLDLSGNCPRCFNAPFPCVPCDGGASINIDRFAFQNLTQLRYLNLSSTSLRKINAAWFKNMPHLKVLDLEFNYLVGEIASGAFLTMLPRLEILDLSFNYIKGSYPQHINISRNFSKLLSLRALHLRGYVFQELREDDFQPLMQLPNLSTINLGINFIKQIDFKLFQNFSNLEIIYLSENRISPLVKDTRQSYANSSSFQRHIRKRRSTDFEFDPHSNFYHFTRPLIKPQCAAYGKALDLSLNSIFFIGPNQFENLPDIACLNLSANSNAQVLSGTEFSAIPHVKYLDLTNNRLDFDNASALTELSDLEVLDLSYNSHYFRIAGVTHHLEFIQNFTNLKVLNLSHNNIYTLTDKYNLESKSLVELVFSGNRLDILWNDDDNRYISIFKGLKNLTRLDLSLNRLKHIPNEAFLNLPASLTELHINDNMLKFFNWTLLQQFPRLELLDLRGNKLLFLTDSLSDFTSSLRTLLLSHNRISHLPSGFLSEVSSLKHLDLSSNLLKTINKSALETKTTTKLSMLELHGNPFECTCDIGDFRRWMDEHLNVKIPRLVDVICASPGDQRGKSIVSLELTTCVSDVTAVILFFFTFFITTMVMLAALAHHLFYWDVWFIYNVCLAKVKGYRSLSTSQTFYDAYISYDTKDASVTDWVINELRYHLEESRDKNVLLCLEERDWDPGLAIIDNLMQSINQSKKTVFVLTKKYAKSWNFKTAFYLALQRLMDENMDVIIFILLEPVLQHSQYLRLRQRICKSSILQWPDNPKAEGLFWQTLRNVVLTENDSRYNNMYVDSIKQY
# Experiment: TLR8 inhibition reporter assay (HEK-Blue cells, SEAP reporter, R848 stimulation)
# Assay type: cell-based
# Conditions: HEK-Blue cells overexpressing human TLR8, R848 15.9 μM
# Procedure, shortened: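 HEK-Blue reporter cells (15,000/well TLR7, 20,000 TLR8) exposed to compound over 0.05 nM–50 μM, agonist-stimulated (R848 for TLR8, gardiquimod for TLR7), 22 h at 37 °C, 5% CO2. SEAP read with HEK-Blue Detection; % inhibition relative to agonist-plus-DMSO and known-inhibitor controls.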
row,Structure (SMILES),IC50 [nM]
1,"COc1ccc(-c2[nH]c3ccc(C4CCN(C(=O)CN[C@H](C)C(C)C)CC4)cc3c2C2CCOCC2)cc1OC [Example 394, (R)-1-(4-(2-(3,4-dimethoxyphenyl)-3-(tetrahydro-2H-pyran-4-yl)-1H-indol-5-yl)piperidin-1-yl)-2-((3-methylbutan-2-yl)amino)ethan-1-one]",660
2,"COc1ccc(-c2[nH]c3ccc(C4CCN(C(=O)CN(C)C)CC4)cc3c2C(O)C(F)(F)F)cc1OC (stereo not drawn) [Example 395, 1-(4-(2-(3,4-dimethoxyphenyl)-3-(2,2,2-trifluoro-1-hydroxyethyl)-1H-indol-5-yl)piperidin-1-yl)-2-(dimethylamino)ethan-1-one]",438
3,"CCc1c(-c2ccc(OC)c(OC)c2)[nH]c2cc(C)c(C3CCNCC3)cc12 [Example 396, 2-(3,4-dimethoxyphenyl)-3-ethyl-6-methyl-5-(piperidin-4-yl)-1H-indole, HCl]",295
4,"COc1ccc(-c2[nH]c3ccc(C4CCN(C(=O)CN(C)C)CC4)cc3c2CC(F)F)cc1OC [Example 399, 1-(4-(3-(2,2-difluoroethyl)-2-(3,4-dimethoxyphenyl)-1H-indol-5-yl)piperidin-1-yl)-2-(dimethylamino)ethan-1-one]",82
5,"COc1ccc(-c2[nH]c3ccc(C4CCN(CC(=O)N(C)C)CC4)cc3c2CC(F)F)cc1OC [Example 400, 2-(4-(3-(2,2-difluoroethyl)-2-(3,4-dimethoxyphenyl)-1H-indol-5-yl)piperidin-1-yl)-N,N-dimethylacetamide]",110

# Continued, values first:
row,IC50 [nM],Structure (SMILES)
1,128,"CNC(=O)CN1CCC(c2ccc3[nH]c(-c4ccc(OC)c(OC)c4)c(CC(F)F)c3c2)CC1 [Example 401, 2-(4-(3-(2,2-difluoroethyl)-2-(3,4-dimethoxyphenyl)-1H-indol-5-yl)piperidin-1-yl)-N-methylacetamide]"
2,2280,"COc1ccc(-c2[nH]c3ccc(C4CCN(C(=O)CN(C)C)CC4)cc3c2C)cc1OC [Example 402, 1-(4-(2-(3,4-dimethoxyphenyl)-3-methyl-1H-indol-5-yl)piperidin-1-yl)-2-(dimethylamino)ethan-1-one]"
3,3750,"CCN(CC)C(=O)C1CCCN(CC(=O)N2CCC(c3ccc4[nH]c(-c5ccc(OC)c(OC)c5)c(C)c4c3)CC2)C1 (stereo not drawn) [Example 404, 1-(2-(4-(2-(3,4-dimethoxyphenyl)-3-methyl-1H-indol-5-yl)piperidin-1-yl)-2-oxoethyl)-N,N-diethylpiperidine-3-carboxamide]"
4,29200,"COc1ccc(-c2[nH]c3ccc(C4CCN(C(=O)CNC[C@@H](O)CO)CC4)cc3c2C)cc1OC [Example 405, (R)-2-((2,3-dihydroxypropyl)amino)-1-(4-(2-(3,4-dimethoxyphenyl)-3-methyl-1H-indol-5-yl)piperidin-1-yl)ethan-1-one]"
